In paper PMC10785756, “Hydrolysis of Antimicrobial Peptides by Extracellular Peptidases in Wastewater” (Environmental Science & Technology, 2023):
Like-named read-outs stand apart in the source and are kept apart here. Peptide text beside a SMILES is read from it.

Assays:
[1] = test system: extracellular wastewater peptidases (pool I extracts from WWTP influents); experiment: Absolute quantification of transformation products (TPs) formed during AMP incubation with wastewater extracts; format: in vitro ADME
Method: We thawed enzyme extracts and transferred 1.35 mL to 2 mL protein LoBind Eppendorf tubes. For autoclaved controls, extract aliquots of 1.5 mL were autoclaved for 20 min at 121 °C and 2 bar (Wolf Sanoclav LaS-MCS-J) and 1.35 mL of the autoclaved extracts were transferred into 2 mL protein LoBind Eppendorf tubes. We then spiked 150 μL of the AMP stock solution containing all AMPs at 10 μg/mL to the enzyme extracts or 1.35 mL of ultrapure water. […] Triplicate incubations were conducted for the autoclaved and active extracts with spiked AMP. After AMP spiking, we mixed the solutions by inverting the vials and incubating them at 20 °C under horizontal shaking at 300 rpm. To stop enzymatic reactions at pre-defined sampling time points (i.e., 2 min, 30 min, 1 h, 2 h, and 4 h), we transferred 150 μL of the incubation solution to 450 μL of acetonitrile containing 1% (v/v) formic acid in 1.5 mL protein LoBind Eppendorf tubes, mixed the resulting solution by inverting the tube and by horizontally shaking it at 300 rpm for 2 min at 20 °C, and centrifuged samples at 16,000g for 1 min. This protocol step was conducted according to Luther et al.[9] We then transferred the supernatant into a fresh 1.5 mL protein LoBind Eppendorf tube and dried it in a SpeedVac vacuum concentrator (30 °C for approximately 6 h). To resolubilize AMPs, we added 150 μL of water containing 5% (v/v) acetonitrile and 0.1% (v/v) formic acid, vortexed the samples, and centrifuged them for 10 s at 1000g at room temperature. We transferred the solution into QuanRecovery HPLC vials (Waters, 186009186) and stored the samples at −20 °C until analysis. For method development, selected (and indicated) samples were sonicated (Sonorex Super RK 106, Bandelin, max 480 W) for 5 min at different steps of the sample preparation process.
We analyzed AMPs using UHPLC (Thermo Scientific Dionex Ultimate 3000) equipped with a Waters XSelect PREMIER CSH C18 column (article number: 186009870) coupled to HRMS (Thermo QExactive). […] We used Skyline (version 20.2.0.343) to analyze the raw data. Criteria for parent peptides and hydrolysis product identification were set as described before:[31]m/z deviation <2 ppm, MS/MS fragments with m/z deviation <5 ppm, and reasonable chromatographic peak shape. For products, the peak area had to either increase throughout the incubation experiment or first increase and then decrease.
To learn about the enzymatic hydrolysis pathways of AMPs that we found to be rapidly biotransformed by enzymes in wastewater extracts, we predicted all products of single peptide bond hydrolysis reactions and screened our data-dependent high-resolution mass spectrometry data for experimental evidence in support of the predicted hydrolysis products. These analyses were conducted for the AMPs with the highest biotransformation extents (i.e., >0.5 in at least two WWTPs), namely, cecropin P1, omiganan, and R8. The following requirements for transformation products (TPs) were defined: at least three amino acids, peak area either increases during the incubation experiment or first increases and then decreases, peak area exceeds that in AMP-free enzyme extract by >5-fold and that in spiked autoclaved extracts by >6-fold, and mass deviation <2 ppm from the calculated exact mass. Mass lists, mass deviations, and retention times of all TPs can be found in Tables S6–S11. We further predicted TPs formed via exocleavage mechanisms (i.e., cleavage of one or two terminal amino acids simultaneously from the C- and N- terminus of the peptide) and screened for these TPs in the HRMS data.
For cecropin P1, we performed absolute quantification for TPs II, III, IV, V, VI, and X and found the highest concentrations for TP III. Up to 8.8% of spiked cecropin P1 is converted to TP III during incubations with wastewater extract. For TP II, the conversion ranges from 3.7–5.7%, and for TP V and VI, conversions range between 1.5 and 4.9 and 2.1 and 2.9%, respectively. […]

[2] = test system: extracellular wastewater peptidases (pool I extracts from WWTP influents); experiment: AMP incubation with active dissolved extracellular wastewater extracts (pool I) from WWTP influents; format: in vitro ADME
Method: We took samples from four municipal WWTPs in Austria ([…], and D). […] Where existing, we sampled the following five stages along the wastewater treatment process: influent, primary clarification tank, high-load and low-load aeration tanks, and effluent. […] We took 2 × 500 mL grab samples at each stage using a plastic beaker. We transferred the samples into 500 mL glass bottles leaving roughly one-third of the bottle empty, transported them to the lab, and pooled duplicate samples for further processing. Enzyme extraction started within 1 h after sampling. For total suspended solid (TSS) determination, we filtered 20 mL of each sample through a preweighed, dry GF/F Whatman glass microfiber filter (Sigma-Aldrich, WHA1825047) using a vacuum filtration system, dried the filters at 105 °C for 2 h, and determined the TSS contents from the weight difference. […] Otherwise, the extraction process was the same for pools I and II. All extractions were performed in triplicate, and extracts were kept on ice until further use. […] Triplicate incubations were conducted for the autoclaved and active extracts with spiked AMP. […] This protocol step was conducted according to Luther et al.[9] We then transferred the supernatant into a fresh 1.5 mL protein LoBind Eppendorf tube and dried it in a SpeedVac vacuum concentrator (30 °C for approximately 6 h). […] We transferred the solution into QuanRecovery HPLC vials (Waters, 186009186) and stored the samples at -20 °C until analysis. For method development, selected (and indicated) samples were sonicated (Sonorex Super RK 106, Bandelin, max 480 W) for 5 min at different steps of the sample preparation process. We analyzed AMPs using UHPLC (Thermo Scientific Dionex Ultimate 3000) equipped with a Waters XSelect PREMIER CSH C18 column (article number: 186009870) coupled to HRMS (Thermo QExactive). We injected 10 μL of each sample and applied a flow rate of 0.4 mL/min using the following eluent gradient (A: ultrapure water, B: […] Detection parameters were chosen as follows: […] We used Skyline (version 20.2.0.343) to analyze the raw data. […] For products, the peak area had to either increase throughout the incubation experiment or first increase and then decrease.

[3] = test system: dissolved extracellular wastewater enzymes derived from aeration tanks of WWTPs; conditions: cited from earlier work
Method: Our results on daptomycin are consistent with an earlier study that reported daptomycin concentrations to be stable during its incubation with dissolved extracellular wastewater enzymes derived from aeration tanks of WWTPs.[33] We note that daptomycin concentrations in experiments with autoclaved controls were lower compared to active extracts for ...

[4] = maximum TP concentration corrected for sorption to the wastewater matrix
[5] = maximum TP concentration during incubation of parent AMP with wastewater extracts, synthetic standards, HPLC-HRMS
[6] = pool I influent extracts, WWTPs A-D, active compared with autoclaved extracts, 20 °C, up to 4 h, HPLC-HRMS, triplicate incubations
[7] = pool I influent extracts, WWTPs A-D, absolute quantification with synthetic peptide standards, HPLC-HRMS, triplicate incubations

Compound: CC[C@H](C)[C@H](N)C(=O)N[C@@H](CC(C)C)C(=O)N[C@@H](CCCNC(=N)N)C(=O)N[C@@H](Cc1c[nH]c2ccccc12)C(=O)N1CCC[C@H]1C(=O)N[C@@H](Cc1c[nH]c2ccccc12)C(=O)N[C@@H](Cc1c[nH]c2ccccc12)C(=O)N1CCC[C@H]1C(=O)O [ILRWPWWP (I)] (H-ILRWPWWP-OH)
- Maximum conc. detected in exp. [1]: 6.9 µg/L
- Potential conc. considering sorption [1]: 8.1 µg/L
- conversion of spiked parent AMP to the TP during incubation with wastewater extract [1]: less than 1%

Compound: murepavadin
- removal by biotransformation in active wastewater extracts (in words) [2]: did not observe substantial removal

Compound: CC(C)[C@H](NC(=O)[C@H](CCCCN)NC(=O)CNC(=O)[C@H](Cc1ccccc1)NC(=O)[C@@H](NC(=O)[C@H](C)N)C(C)C)C(=O)O [AVFGKV (V)] (H-AVFGKV-OH)
- Potential conc. considering sorption [1, 4]: 30.0 µg/L
- Maximum conc. detected in exp. [1, 5]: 27.5 µg/L

Compound: bacitracin A
- removal by biotransformation in active wastewater extracts (in words) [2, 6]: did not observe substantial removal

Compound: daptomycin
- daptomycin concentration during incubation with dissolved extracellular wastewater enzymes [3]: stable
- removal by biotransformation in active wastewater extracts (in words) [2, 6]: did not observe substantial removal

Compound: CC(C)C[C@H](NC(=O)[C@@H](N)Cc1ccccc1)C(=O)NCC(=O)N[C@@H](CCCCN)C(=O)N[C@H](C(=O)O)C(C)C [FLGKV (II)] (H-FLGKV-OH)
- Potential conc. considering sorption [1, 4]: 19.5 µg/L
- Maximum conc. detected in exp. [1, 5]: 16.5 µg/L

Compound: CC[C@H](C)[C@H](N)C(=O)N[C@@H](CCC(N)=O)C(=O)NCC(=O)NCC(=O)N1CCC[C@H]1C(=O)N[C@@H](CCCNC(=N)N)C(=O)O [IQGGPR (III)] (H-IQGGPR-OH)
- Potential conc. considering sorption [1, 4]: 124.8 µg/L
- Maximum conc. detected in exp. [1, 5]: 87.8 µg/L
- conversion of spiked parent AMP to the TP during incubation with wastewater extract [1, 7]: Up to 8.8%

Compound: CC(C)C[C@H](NC(=O)[C@H](Cc1c[nH]c2ccccc12)NC(=O)[C@@H](N)CO)C(=O)O [SWL (IV)] (H-Ser-Trp-Leu-OH)
- Maximum conc. detected in exp. [1]: 2.7 µg/L
- Potential conc. considering sorption [1]: 3.4 µg/L
- conversion of spiked parent AMP to the TP during incubation with wastewater extract [1]: less than 1%

Compound: CC(C)[C@H](N)C(=O)N[C@@H](Cc1ccccc1)C(=O)NCC(=O)N[C@@H](CCCCN)C(=O)N[C@H](C(=O)O)C(C)C [VFGKV (VII)] (H-VFGKV-OH)
- Potential conc. considering sorption [1, 4]: 47.1 µg/L
- Maximum conc. detected in exp. [1, 5]: 32.1 µg/L

Compound: CC(C)C[C@H](NC(=O)[C@H](Cc1c[nH]c2ccccc12)NC(=O)[C@@H](N)CO)C(=O)N[C@@H](CO)C(=O)O [SWLS (II)] (H-SWLS-OH)
- Potential conc. considering sorption [1, 4]: 69.5 µg/L
- Maximum conc. detected in exp. [1, 5]: 57.1 µg/L
- conversion of spiked parent AMP to the TP during incubation with wastewater extract [1, 7]: 3.7–5.7%

Compound: CC(C)C[C@H](NC(=O)[C@H](Cc1c[nH]c2ccccc12)NC(=O)[C@@H](N)CO)C(=O)N[C@@H](CO)C(=O)N[C@@H](CCCCN)C(=O)N[C@H](C(=O)O)[C@@H](C)O [SWLSKT (X)] (H-SWLSKT-OH)
- Potential conc. considering sorption [1, 4]: 3.7 µg/L
- Maximum conc. detected in exp. [1, 5]: 2.9 µg/L
- conversion of spiked parent AMP to the TP during incubation with wastewater extract [1, 7]: less than 1%

Compound: colistin B
- removal by biotransformation in active wastewater extracts (in words) [2]: biotransformed

Compound: omiganan
- biotransformation extent (eq 1, from concentrations in active and autoclaved extracts) [2]: > 0.5
- removal by biotransformation in active wastewater extracts (in words) [2]: rapidly removed to nonquantifiable concentrations

Compound: CC(C)C[C@H](NC(=O)[C@@H](N)Cc1ccccc1)C(=O)NCC(=O)O [FLG (IV)] (H-Phe-Leu-Gly-OH)
- Maximum conc. detected in exp. [1]: 22.8 µg/L
- Potential conc. considering sorption [1]: 29.3 µg/L

Compound: CC(C)C[C@H](NC(=O)[C@H](Cc1c[nH]c2ccccc12)NC(=O)[C@@H](N)CO)C(=O)N[C@@H](CO)C(=O)N[C@@H](CCCCN)C(=O)N[C@H](C(=O)N[C@@H](C)C(=O)O)[C@@H](C)O [SWLSKTA (VI)] (H-SWLSKTA-OH)
- Potential conc. considering sorption [1, 4]: 36.4 µg/L
- Maximum conc. detected in exp. [1, 5]: 28.6 µg/L

Compound: CC[C@H](C)[C@H](NC(=O)[C@H](C)N)C(=O)N[C@@H](CCC(N)=O)C(=O)NCC(=O)NCC(=O)N1CCC[C@H]1C(=O)N[C@@H](CCCNC(=N)N)C(=O)O [AIQGGPR (V)] (H-AIQGGPR-OH)
- Potential conc. considering sorption [1, 4]: 78.2 µg/L
- Maximum conc. detected in exp. [1, 5]: 48.6 µg/L

Compound: colistin A
- removal by biotransformation in active wastewater extracts (in words) [2]: biotransformed
- detectable removal during incubation, of the amounts detected at the first time point, in active extracts ([2]; pool I influent extracts, WWTPs A-D, all AMPs spiked together (150 μL of 10 μg/mL into 1.35 mL extract), 20 °C, 300 rpm, sampling 2 min to 4 h, HPLC-HRMS, triplicate incubations, maximum over WWTPs): up to 50%

Compound: CC(C)C[C@H](NC(=O)[C@@H](N)Cc1ccccc1)C(=O)NCC(=O)N[C@@H](CCCCN)C(=O)N[C@H](C(=O)N[C@@H](Cc1ccccc1)C(=O)O)C(C)C [FLGKVF (I)] (H-FLGKVF-OH)
- Potential conc. considering sorption [1, 4]: 101.9 µg/L
- Maximum conc. detected in exp. [1, 5]: 78.3 µg/L
- conversion of spiked parent AMP to the TP during incubation with wastewater extract [1, 7]: Up to 7.8%
